Consider 13 molecules from patent US20260109707A1, “HETEROBIFUNCTIONAL COMPOUNDS AND METHODS OF TREATING DISEASE” (Halda Therapeutics OpCo. Inc., priority 2022, published 2026).

One experiment has as its system VCaP cells. Put plainly: Cellular growth inhibition assay for VCaP cells (CellTiter-Glo, 72 hours). In kind it is cell-based, human. In a few lines: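 Luminescent viability signal after 72 h of compound exposure gave GI50 values by four-parameter nonlinear regression. Compounds were added in 0.5% DMSO to cells plated 24 h earlier at 5000/well in DMEM containing 10% FBS.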

Experiment [1] concerns T-Rex 293 cell line SC3 cells having increased expression of androgen receptor protein due to exposure to doxycycline. In words: Cellular growth inhibition assay, T-Rex 293 SC3 cells with doxycycline (CellTiter-Glo, 72 hours). In kind it is cell-based. The conditions noted are these: T-Rex 293 SC3 cells with increased androgen receptor expression due to doxycycline (10 ng/mL). The method, boiled down: (§1)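 Doxycycline (10 ng/mL) was either included or omitted to toggle wild-type androgen receptor expression in SC3 cells, a T-Rex 293 clone, grown in stripped-serum, phenol red-free medium. After 72 hours with compound, viable cells were quantified by CellTiter-Glo 2.0.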

Experiment [2] concerns T-Rex 293 cell line SC3 cells lacking increased expression of androgen receptor protein. Put plainly: Cellular growth inhibition assay, T-Rex 293 SC3 cells without doxycycline (CellTiter-Glo, 72 hours). The format is cell-based. The conditions noted are these: T-Rex 293 cell line SC3 cells not exposed to doxycycline (lacking increased androgen receptor expression). The method, boiled down:
as §1

Where two headings read alike, the source gives them in different places.

In the case of `Cc1sc2c(c1C)C(c1ccc(CC3CCC4(CCCN(c5ccc(C(=O)N[C@H]6CC[C@H](Oc7ccc(C#N)c(Cl)c7)CC6)nn5)C4)C3)cc1)=N[C@@H](C)c1nnc(C)n1-2` (stereo partly drawn) [I-585], the values for the GI50 (in the experiment with VCaP cells; in experiment [1]; in experiment [2]) were over 3000 nM, under 500 nM and over 3000 nM, respectively.

Consider `Cc1sc2c(c1C)C(c1ccc(COC3CCC4(C3)CN(c3ccc(C(=O)N[C@H]5CC[C@H](Oc6ccc(C#N)c(Cl)c6)CC5)nn3)CCO4)cc1)=N[C@@H](C)c1nnc(C)n1-2` (stereo partly drawn) [I-586], for which the GI50 was 500 to 1500 nM with VCaP cells, under 500 nM in experiment [1] and under 500 nM in experiment [2] (72 h).

In the case of `Cc1sc2c(c1C)C(c1ccc(OC3CN(C(C)(C)C4CCN(c5ccc(C(=O)N[C@H]6CC[C@H](Oc7ccc(C#N)c(Cl)c7)CC6)nn5)CC4)C3)cc1)=N[C@@H](C)c1nnc(C)n1-2` [I-587], the GI50 with VCaP cells (Homo sapiens, VCaP, 72 h) was 1500 to 3000 nM; in experiment [1] (72 h), under 500 nM; in experiment [2] (72 h), under 500 nM.

Take `Cc1sc2c(c1C)C(c1ccc(C3CC(N4CCN(c5ccc(C(=O)N[C@H]6CC[C@H](Oc7ccc(C#N)c(Cl)c7)CC6)nn5)CC4)C3)cc1)=N[C@@H](C)c1nnc(C)n1-2` (stereo partly drawn) [I-589]: the GI50 in the experiment with VCaP cells (Homo sapiens, VCaP, 72 h) is under 500 nM; in experiment [1] (72 h), under 500 nM; in experiment [2] (72 h), under 500 nM.

`Cc1sc2c(c1C)C(c1ccc(C3CCC4(CC3)CCN(c3ccc(C(=O)N[C@H]5CC[C@H](Oc6ccc(C#N)c(Cl)c6)CC5)nn3)CC4)cc1)=N[C@@H](C)c1nnc(C)n1-2` [I-590]: the GI50 is over 3000 nM in the experiment with VCaP cells (Homo sapiens, VCaP, 72 h); under 500 nM in experiment [1] (72 h); under 500 nM in experiment [2] (72 h).

As to `Cc1sc2c(c1C)C(c1ccc(N3CCC4(CC3)CCN(c3ccc(C(=O)N[C@H]5CC[C@H](Oc6ccc(C#N)c(Cl)c6)CC5)nn3)C4)cc1)=N[C@H](C)c1nnc(C)n1-2` [I-591], the GI50 with VCaP cells (Homo sapiens, VCaP, 72 h) is under 500 nM; in experiment [1] (72 h), under 500 nM; in experiment [2] (72 h), over 3000 nM.

As to `Cc1sc2c(c1C)C(c1ccc(CCCC3CCN(c4ccc(C(=O)N[C@H]5CC[C@H](Oc6ccc(C#N)c(Cl)c6)CC5)nn4)CC3)cc1)=N[C@@H](C)c1nnc(C)n1-2` [I-592], the GI50 is under 500 nM in the experiment with VCaP cells (Homo sapiens, VCaP, 72 h); under 500 nM in experiment [1] (72 h); under 500 nM in experiment [2] (72 h).

On to `Cc1sc2c(c1C)C(c1ccc(CCC3CCN(c4ccc(C(=O)NC5CCC(Oc6ccc(C#N)c(Cl)c6)CC5)nn4)CC3)cc1)=NC(C)c1nnc(C)n1-2` (stereo not drawn) [I-593], for which the GI50 with VCaP cells (Homo sapiens, VCaP, 72 h) is under 500 nM; in experiment [1] (72 h), under 500 nM; in experiment [2] (72 h), under 500 nM.

On to `Cc1sc2c(c1C)C(c1ccc(N3CC4(CC(CCc5ccc(C(=O)N[C@H]6CC[C@H](Oc7ccc(C#N)c(Cl)c7)CC6)nn5)C4)C3)cc1)=N[C@@H](C)c1nnc(C)n1-2` [I-594], for which the GI50 in the experiment with VCaP cells (Homo sapiens, VCaP, 72 h) was 500 to 1500 nM; in experiment [1] (72 h) it was under 500 nM; in experiment [2] (72 h) it was 500 to 1500 nM.

For the molecule `Cc1sc2c(c1C)C(c1ccc(OC3(C)CC4(CN(c5ccc(C(=O)N[C@H]6CC[C@H](Oc7ccc(C#N)c(Cl)c7)CC6)nn5)C4)C3)cc1)=N[C@@H](C)c1nnc(C)n1-2` [I-595], the concentration for 50% growth inhibition (GI50) in the experiment with VCaP cells (Homo sapiens, VCaP, 72 h) is 500 to 1500 nM; in experiment [1] (72 h) it was under 500 nM; in experiment [2] (72 h) it was under 500 nM.

As for `Cc1sc2c(c1C)C(c1ccc(N3CCC(CCc4ccc(C(=O)N[C@H]5CC[C@H](Oc6ccc(C#N)c(Cl)c6)CC5)nn4)CC3)cc1)=N[C@@H](C)c1nnc(C)n1-2` [I-596], the GI50 with VCaP cells (Homo sapiens, VCaP, 72 h) is under 500 nM; in experiment [1] (72 h) it was under 500 nM; in experiment [2] (72 h), under 500 nM.

In the case of `Cc1sc2c(c1C)C(c1ccc(OCC3CC4(CCCN(c5ccc(C(=O)N[C@H]6CC[C@H](Oc7ccc(C#N)c(Cl)c7)CC6)nn5)C4)C3)cn1)=NC1(CC1)c1nnc(C)n1-2` (stereo partly drawn) [I-597], the figures for the GI50 (in the experiment on VCaP cells; in experiment [1]; in experiment [2]) were under 500 nM, under 500 nM and over 3000 nM, respectively.

Turning to `Cc1sc2c(c1C)C(c1ccc(N3CC(CC4CCCN(c5ccc(C(=O)N[C@H]6CC[C@H](Oc7ccc(C#N)c(Cl)c7)CC6)nn5)C4)C3)cc1)=NC1(CC1)c1nnc(C)n1-2` (stereo partly drawn) [I-598], the concentration for 50% growth inhibition (GI50) (in the experiment with VCaP cells; in experiment [1] (72 h); in experiment [2]) was under 500 nM in each case.
